The values below come from US8802858B2, “Furazanobenzimidazoles as prodrugs to treat neoplastic or autoimmune diseases” (Basilea Pharmaceutica AG, priority 2009, dated 2014).

Values after ≈ are worked out from the molar mass of the structure shown. Where two headings read alike, the source gives them in different places.

Data set [1] can be described thus: Determination of kinetic solubility. As to conditions: aqueous buffer, kinetic from dmso stock, 2.5% DMSO, room temperature, read-out: C eff. In kind it is physicochemical. The method, then: Compounds, provided as 20 mM or 10 mM stock solutions in 100% DMSO, are diluted 1:40 in aqueous buffer to a concentration of 0.5 mM or 0.25 mM, respectively, with 2.5% residual DMSO. The pH 6.5 buffer consists of 0.05 M 3-(N-morpholino)-2-hydroxypropanesulfonic acid (MOPSO) adjusted to the target pH with NaOH. Buffers at pH 5 and pH 3 are prepared from commercially available concentrates (Titrisol®, Merck). The samples are then incubated at room temperature for 6 hours with gentle shaking followed by vacuum filtration through a MultiScreen DV plate (Durapore hydrophilic PVDF membrane, 0.65 μm pore size, Millipore). The filtrates are adjusted to 20% acetonitrile and analyzed by UV spectroscopy to obtain the absorption maximum and the corresponding wavelength. The concentration of compound in the filtrate is calculated based on the linear part of a standard curve constructed using 3 to 5 known concentrations of each sample in aqueous buffer supplemented with 20% acetonitrile.

Data set [2] is described as follows: Pharmacokinetic studies in xenografted mice (plasma and tumor). In kind it is in vivo, CD-1 Nu/Nu female mice. To be noted: female, CD-1 Nu/Nu, mouse, iv. The method, then: CD-1 Nu/Nu female mice implanted with the human colon carcinoma SW480 cell line are treated with either the “Parent Drug”, i.e. 3-(4-{1-[2-(4-amino-phenyl)-2-oxo-ethyl]-1H-benzoimidazol-2-yl}-furazan-3-ylamino)-propionitrile, or “Example 1” i.e. S-2,6-diamino-hexanoic acid [4-(2-{2-[4-(2-cyano-ethylamino)-furazan-3-yl]-benzoimidazol-1-yl}-acetyl)-phenyl]-amide hydrochloride salt, when the tumor size reached approximately 150 mm^3+/−10%. Mice (33 per compound) are treated i.v. […]
After the 4th application (4th week), three mice/sampling point from the “Parent Drug” and “Example 1” groups are culled before and 5 min, 15 min, 30 min, 45 min, 1 h, 1.5 h, 2 h, 4 h, 6 h and 24 h post-administration. Blood is collected by cardiac puncture into K3EDTA tubes kept on ice until centrifugation at 4° C. Plasma is stored at −20° C. At necropsy, tumors are removed and weighed. Tumors are stored at −20° C. Plasma and tumor samples are analyzed by LC-MS/MS. Pharmacokinetic parameters are calculated using WinNonLin 5.2. All results for “Example 1” represent the free base.

Data set [3] relates to SW480 colorectal cancer xenografts. Kind of data set: In vivo efficacy studies, SW480 xenografts. Also noted: species or system athymic nude mice. To be noted: for final T/C (ratio of tumor volume in the treatment group vs. the control group) at day 24: once weekly i.v. for 24 days, prodrug 21 mg/kg, parent drug 8 mg/kg; for final T/C (day 24): three times per week (d1/4/7) i.v. for 24 days, prodrug 7.1 mg/kg. An excerpt: (§1) Mice bearing SW480 colorectal cancer xenografts are used to test and compare the anti-cancer efficacy and tolerability of intravenous (i.v.) application of the prodrug according to Example 1 (S-2,6-diamino-hexanoic acid [4-(2-{2-[4-(2-cyano-ethylamino)-furazan-3-yl]-benzoimidazol-1-yl}-acetyl)-phenyl]-amide hydrochloride salt) and the corresponding parent drug” (3-(4-{1-[2-(4-amino-phenyl)-2-oxo-ethyl]-1H-benzoimidazol-2-yl}-furazan-3-ylamino)-propionitrile) at the maximum tolerated dose level (MTD). Prior to the efficacy experiment, a determination of the MTD of each compound administered once weekly is performed in non-tumor-bearing nude mice of the same strain. Administration of 24.5 mg/kg prodrug and 10 mg/kg parent drug, given as an i.v. bolus once weekly, results in body weight losses >10% in a few animals in both groups. The MTDs in tumor-bearing mice are, therefore, determined to be 15-20% lower, resulting in doses of 21 mg/kg prodrug and 8 mg/kg parent drug. Human colorectal carcinoma cells (SW480) are injected subcutaneously (4×10^6 cells) into the back of 4-8-week old athymic nude mice. Tumor volumes are determined from calliper measurements of tumor length (L) and width (1) according to the formula (L×l^2)/2. Tumors are allowed to expand to a volume of 200 mm^3 (±10%) before treatment start. The prodrug and parent drug are administered i.v. for 24 days, either once per week at 21 mg/kg and 8 mg/kg, respectively, or three times a week (d1/4/7) at 7.1 mg/kg and 2.7 mg/kg, respectively (both schedules represent the same total weekly dose). Tumor volume and body weight are monitored daily.
FIG. 1 provides a graphical representation of the changes in mean tumor volume during the time of treatment when using the administration schedule, wherein prodrug and parent drug are given once weekly for 24 days at doses of 21 mg/kg and 8 mg/kg, respectively, with appropriate vehicle controls (5 ml/kg) administered with the same schedule. Data points represent mean values+/−SEM (n=7-8 animals, each animal was engrafted with one tumor).
FIG. 2 provides a graphical representation of the changes in mean tumor volume during the time of treatment when using the administration schedule, wherein prodrug and parent drug are given three times per week (d1/4/7) for 24 days at doses of 7.1 mg/kg and 2.7 mg/kg in 5 ml/kg, respectively, with appropriate vehicle controls (5 ml/kg) administered with the same schedule. Data points again represent mean values+/−SEM (n=7-8 animals, each animal was engrafted with one tumor).

Data set [4] is described as follows: Determination of the maximum tolerated dose (MTD), once weekly i.v. To be noted: athymic nude, mouse, in vivo, iv.
Excerpt: as §1, with “The prodrug and parent drug are administered i.v. for 24 days, either once per week at 21 mg/kg and 8 mg/kg, respectively, or three times a week (d1/4/7) at 7.1 mg/kg and 2.7 mg/kg, respectively (both schedules represent the same total weekly dose).” left out

Data set [5] can be described thus: Prodrug-drug conversion in full blood. To be noted: fresh heparinised rat blood, 37° C., after 120 min. The class given is in vitro ADME. As for the experimental part:
495 μL fresh heparinised rat blood are spiked with 5 μL of a 1 mg/mL DMSO solution of the analyte (prodrug) at 37° C. After t=0, 5, 15, 30, 60 and 120 min, a blood sample is taken and precipitated. Therefore to 50 μL blood sample or spiked blood sample 150 μL acetonitrile containing an internal standard are added. Samples are centrifuged and 20 μl of the supernatant are injected into the HPLC system for determination of compound concentration (prodrug and parent drug) by LC-MS/MS analysis.
For calibration, a standard curve is prepared with a compound concentration range from 10 to 10000 ng/mL in fresh heparine rat blood. Therefore the blood is spiked (2 μL DMSO solution in 198 μL fresh rat blood) and precipitated like unknown samples.

Data set [6] in a line: In vivo pharmacokinetic studies, intravenous administration, Vena saphena screening method. Also noted: species or system male NMRI mice. To be noted: mice, i.v. administration of the prodrug. The method, then:
The compounds are evaluated in vivo after intravenous administration to male NMRI mice using the Vena saphena screening method.
A dose of 1 mg/kg of the compound is administered i.v. as a bolus (5 mL/kg). Serial blood samples (40 μL) are drawn after puncture of the saphenous vein and collected in a sodium heparin coated capillary tube from two mice per time point at pre-dose, 5 min, 15 min, 30 min, 45 min, 1 h, 2 h, 4 h, 6 h, 8 h and 24 h after intravenous administration.
Blood samples are weighed and the blood quenched in 300 μl stop solution consisting of acetonitrile/water (80:20) and an internal standard.
Blood concentrations of the compound (prodrug) and its parent drug are determined using LC-MS/MS analysis with a limit of quantification of 4 to 40 ng/mL.
Mean arithmetic plasma/blood concentrations are calculated using BLQ (below limit of quantitation)−value of zero if necessary. • Mean AUCinfIV [ng*h/mL] The area under the blood concentration-time curve for a mean normalized (1 mg/kg) iv application from time zero to the last sampling time with a concentration above the limit of quantification. • Mean AUCinfIV is calculated according to the linear trapezoidal rule.
In a study mice are intravenously treated with prodrugs according to the invention, followed by determination of the blood concentration of the drug. […]

With `N#CCCNc1nonc1-c1nc2ccccc2n1CC(=O)c1ccc(NC(=O)[C@@H](N)CCCCN)cc1` [Example 1, S-2,6-diamino-hexanoic acid [4-(2-{2-[4-(2-cyano-ethylamino)-furazan-3-yl]-benzoimidazol-1-yl}-acetyl)-phenyl]-amide], the solubility kinetic at 6 h was greater than 200 µM in data set [1] (pH 3.0 buffer), greater than 200 µM in data set [1] (pH 5.0 buffer) and 190 µM (≈ 98 µg/mL) in data set [1] (pH 6.5 buffer). The AUC(0-t) in data set [2] (plasma, analyte Example 1 (free base), after i.v. 19.6 mg Example 1, xenografted mice, read-out: AUClast of Example 1 in plasma) was determined as 21100 ng·h/mL; in data set [2] (tumor, analyte Example 1 (free base), after i.v. 19.6 mg Example 1, xenografted mice, read-out: AUClast of Example 1 in tumors) it was 29300 ng·h/mL. Further, the Cmax (as a rule, the peak of the concentration-time curve) in data set [2] (plasma, analyte Example 1 (free base), after i.v. 19.6 mg Example 1, xenografted mice, read-out: Cmax of Example 1 in plasma) was determined as 81900 ng/mL; in data set [2] (tumor, analyte Example 1 (free base), after i.v. 19.6 mg Example 1, xenografted mice, read-out: Cmax of Example 1 in tumors), 6010 ng/mL. Besides, the half-life in data set [2] (plasma, analyte Example 1 (free base), after i.v. 19.6 mg Example 1, xenografted mice, read-out: T1/2 of Example 1 in plasma (converted)) was 5.5 h; in data set [2] (tumor, analyte Example 1 (free base), after i.v. 19.6 mg Example 1, xenografted mice, read-out: T1/2 of Example 1 in tumors (converted)), 9.6 h. Moreover, the “final T/C (ratio of tumor volume in the treatment group vs. the control group) at day 24” value in data set [3] worked out at 34%. Besides, in data set [3] (parent drug 2.7 mg/kg), the “final T/C (day 24)” value is recorded as 26%. Moreover, the maximum tolerated dose (MTD) (commonly the largest dose that counted as tolerated) in data set [4] came out at 21 mg/kg.
As to `C[C@H](N)C(=O)Nc1ccc(C(=O)Cn2c(-c3nonc3NCCC#N)nc3ccccc32)cc1` [Example 2], the solubility kinetic at 6 h is greater than 200 µM in data set [1] (pH 3.0 buffer), 55 µM (≈ 25.2 µg/mL) in data set [1] (pH 5.0 buffer) and 91 µM (≈ 41.7 µg/mL) in data set [1] (pH 6.5 buffer).
`N#CCCNc1nonc1-c1nc2ccccc2n1CC(=O)c1ccc(NC(=O)CN)cc1` [Example 3]: the solubility kinetic at 6 h is greater than 200 µM in data set [1] (pH 3.0 buffer), 71 µM (≈ 31.6 µg/mL) in data set [1] (pH 5.0 buffer) and 106 µM (≈ 47.1 µg/mL) in data set [1] (pH 6.5 buffer).
For `CC(C)C[C@H](N)C(=O)Nc1ccc(C(=O)Cn2c(-c3nonc3NCCC#N)nc3ccccc32)cc1` [Example 11] the same measures were 189 µM (≈ 94.6 µg/mL), 37 µM (≈ 18.5 µg/mL) and 20 µM (≈ 10 µg/mL).
Regarding `NCC(=O)Nc1ccc(C(=O)Cn2c(-c3nonc3N)nc3ccccc32)cc1` [Example 12, 2-Amino-N-(4-{2-[2-(4-amino-furazan-3-yl)-benzoimidazol-1-yl]-acetyl}-phenyl)-acetamide], the “conversion of prodrug into its parent drug” value in data set [5] is reported as “completely converted”.
For the compound `CN(C)/C=N/c1ccc(C(=O)Cn2c(-c3nonc3NCCC#N)nc3ccccc32)cc1` [Example 14, N′-[4-(2-{2-[4-(2-Cyano-ethylamino)-furazan-3-yl]-benzoimidazol-1-yl}-acetyl)-phenyl]-N,N-dimethyl-formamidine], in data set [6], the “levels of the parent drug after intravenous administration” value is listed as “no significant levels”.
On the same count and under the same terms, in the case of `N#CCCNc1nonc1-c1nc2ccccc2n1CC(=O)c1ccc(NS(=O)(=O)O)cc1` [Example 15, [4-(2-{2-[4-(2-Cyano-ethylamino)-furazan-3-yl]-benzoimidazol-1-yl}-acetyl)-phenyl]-sulfamic acid] it was “no significant levels”.
As for `N#CCCNc1nonc1-c1nc2ccccc2n1CC(=O)c1ccc(N)cc1` [Parent Drug, 3-(4-{1-[2-(4-Amino-phenyl)-2-oxo-ethyl]-1H-benzoimidazol-2-yl}-furazan-3-ylamino)-propionitrile, reference compound], the solubility kinetic at 6 h in data set [1] (pH 3.0 buffer), in data set [1] (pH 5.0 buffer) and in data set [1] (pH 6.5 buffer) was less than 10 µM throughout. Further, the peak concentration (Cmax) came to 11000 ng/mL in data set [2] (plasma, after i.v. 8 mg/kg Parent Drug, 4th application, xenografted mice, read-out: Cmax of Parent Drug in plasma) and 3210 ng/mL in data set [2] (tumor, after i.v. 8 mg/kg Parent Drug, 4th application, xenografted mice, read-out: Cmax of Parent Drug in tumors). The AUC(0-t) is 44800 ng·h/mL in data set [2] (plasma, after i.v. 8 mg/kg Parent Drug, xenografted mice, read-out: AUClast of Parent Drug in plasma) and 45500 ng·h/mL in data set [2] (tumor, after i.v. 8 mg/kg Parent Drug, xenografted mice, read-out: AUClast of Parent Drug in tumors). Further, the half-life in data set [2] (plasma, after i.v. 8 mg/kg Parent Drug, xenografted mice, read-out: T1/2 of Parent Drug in plasma (converted)) is 3.2 h; in data set [2] (tumor, after i.v. 8 mg/kg Parent Drug, xenografted mice, read-out: T1/2 of Parent Drug in tumors (converted)) it was 5.4 h. For the same compound, the “final T/C (ratio of tumor volume in the treatment group vs. the control group) at day 24” value in data set [3] came out at 45%. Besides, the “final T/C (day 24)” value in data set [3] (parent drug 2.7 mg/kg) was 54%. Further, in data set [3] (three times per week i.v., parent drug 2.7 mg/kg), the “death of animals during treatment” value is “one animal in the parent drug-group (three times per week treatment) died at day 10”. In addition, the MTD in data set [4] (i.v. once weekly, set 15-20% lower than dose causing body weight loss, read-out: MTD in tumor-bearing mice) was found to be 8 mg/kg.
